Measurements reported in patent US11999727B2 (Tango Therapeutics, Inc., priority 2020, dated 2024).

How the values were obtained:
PRMT5 [1] = biological target: T1, PRMT5 (Homo sapiens, UniProt O14744); assay: PRMT5 biochemical IC50 assay with SAM as cofactor; details: PRMT5, SAM as cofactor; read-out: SAM IC50
T1 construct: purchased Viva (custom protein)

[2] = test system: HAP1 MTAP-deleted cell line; assay: Viability assay, MTAP-deleted cell line; type: cell-based; details: Homo sapiens, read-out: HAP1 MTAP deleted viability
From the text: Table 1 additionally indicates IC50 values in a viability assay for the MTAP-deleted cell line (column 10), indicating the effect of treatment with compound on cell survival.

[3] = test system: HAP1 MTAP-deleted cell line; assay: SDMA in-cell western assay, HAP1 MTAP-deleted; type: cell-based; details: for IC50: Homo sapiens, HAP1, SDMA in-cell western, HAP1 MTAP-deleted; for MTAP intact/deleted ratio: IC50 ratio HAP1 MTAP-intact / HAP1 MTAP-deleted, SDMA in-cell western
In short: (§1)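 MTAP-null vs endogenous-MTAP HAP1 isogenic cells; in-cell western SDMA readout; IC50 per line.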

[4] = test system: HAP1 MTAP-intact cell line; assay: SDMA in-cell western assay, HAP1 MTAP-intact; type: cell-based; details: Homo sapiens, HAP1, SDMA in-cell western, HAP1 MTAP-intact; read-out: MTAP HAP1 intact IC50
In short: as §1

PRMT5 [5] = biological target: T1, PRMT5; assay: PRMT5 biochemical IC50 assay with no cofactor; details: PRMT5, no cofactor; read-out: No Cofactor/rel IC50
From the text: Table 1 indicates IC50 values (μM) against PRMT5 for exemplary compounds in the presence of SAM as cofactor, with no cofactor, and with MTA as cofactor, respectively (columns 4-6). […] Ki values can be calculated from the IC50 values as described in the Examples section. As detailed in the Examples section, for the assay performed in the presence of SAM, IC50=Ki×1.5 (Ki=IC50/1.5).

PRMT5 [6] = biological target: T1, PRMT5; assay: PRMT5 biochemical IC50 assay with MTA as cofactor; details: PRMT5, MTA as cofactor; read-out: MTA IC50
[7] = HAP1, viability assay, MTAP-deleted cell line
[8] = read-out: HAP1 MTAP deleted IC50
[9] = HAP1, viability IC50, MTAP-deleted cell line
[10] = read-out: HAP 1 MTAP deleted IC50

T1 sequence (O14744 whole entry): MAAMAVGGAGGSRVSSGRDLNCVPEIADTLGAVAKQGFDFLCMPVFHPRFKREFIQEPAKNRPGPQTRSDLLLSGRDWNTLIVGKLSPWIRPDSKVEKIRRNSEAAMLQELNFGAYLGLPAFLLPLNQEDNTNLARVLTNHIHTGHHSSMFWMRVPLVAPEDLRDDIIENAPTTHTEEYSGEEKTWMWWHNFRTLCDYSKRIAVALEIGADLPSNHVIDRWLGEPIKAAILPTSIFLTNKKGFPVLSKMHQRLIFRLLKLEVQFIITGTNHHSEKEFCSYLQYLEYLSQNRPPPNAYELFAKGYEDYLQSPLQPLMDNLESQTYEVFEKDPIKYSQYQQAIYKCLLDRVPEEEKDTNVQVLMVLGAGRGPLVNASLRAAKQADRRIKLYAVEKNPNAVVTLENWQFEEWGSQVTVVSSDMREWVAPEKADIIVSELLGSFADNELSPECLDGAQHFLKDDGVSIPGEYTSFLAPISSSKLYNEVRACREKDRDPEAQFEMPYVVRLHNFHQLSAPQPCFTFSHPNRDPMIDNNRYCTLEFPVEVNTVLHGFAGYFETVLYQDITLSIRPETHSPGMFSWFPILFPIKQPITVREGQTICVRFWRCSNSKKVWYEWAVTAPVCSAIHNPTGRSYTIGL
T1 sequence (Q9BQA1 whole entry partner): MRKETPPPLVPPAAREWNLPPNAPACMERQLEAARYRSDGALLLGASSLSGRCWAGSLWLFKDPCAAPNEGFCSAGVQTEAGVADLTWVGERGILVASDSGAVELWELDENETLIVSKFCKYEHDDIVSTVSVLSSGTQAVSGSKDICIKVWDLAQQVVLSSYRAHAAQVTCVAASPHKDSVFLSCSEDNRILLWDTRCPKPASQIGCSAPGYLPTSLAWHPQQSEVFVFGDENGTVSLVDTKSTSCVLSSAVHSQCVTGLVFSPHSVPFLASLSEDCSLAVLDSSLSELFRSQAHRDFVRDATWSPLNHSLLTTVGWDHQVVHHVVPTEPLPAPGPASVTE

IC50 (PRMT5 [1])	IC50 [3, 8]	IC50 [4]	IC50 (PRMT5 [5])	IC50 (PRMT5 [6])	IC50 [3, 10]	SMILES	IC50 [2, 7]	MTAP intact/deleted ratio [3]	IC50 [2, 9]
50 to 500 nM		> 1000 nM	50 to 500 nM	< 50 nM	< 100 nM	C[C@@H]1CC[C@@H](c2ccc(F)c(O)c2)N(C(=O)C(=O)Nc2cncc(C(N)=O)c2)C1 (racemic) [Compound 540, 5-[[2-[(2R,5S)-2-(4-fluoro-3-hydroxy-phenyl)-5-methyl-1-piperidyl]-2-oxo-acetyl]amino]pyridine-3-carboxamide]		A (an IC50 ratio greater than or equal to 10 fold)	< 1000 nM
50 to 500 nM		> 1000 nM	50 to 500 nM	< 50 nM	< 100 nM	CC(C)c1cc([C@@H]2CC[C@@H](C)CN2C(=O)C(=O)Nc2cncc(C(N)=O)c2)ccc1O (racemic) [Compound 552, 5-[[2-[(2S,5R)-2-(4-Hydroxy-3-isopropyl-phenyl)-5-methyl-1-piperidyl]-2-oxo-acetyl]amino]pyridine-3-carboxamide]		A (an IC50 ratio greater than or equal to 10 fold)	< 1000 nM
50 to 500 nM		> 1000 nM	50 to 500 nM	< 50 nM	< 100 nM	Cc1ccc([C@@H]2CC[C@@H](C)CN2C(=O)C(=O)Nc2cncc(C(N)=O)c2)cc1O (racemic) [Compound 554, 5-[[2-[(2S,5R)-2-(3-hydroxy-4-methyl-phenyl)-5-methyl-1-piperidyl]-2-oxo-acetyl]amino]pyridine-3-carboxamide]		A (an IC50 ratio greater than or equal to 10 fold)	1000 to 10000 nM
50 to 500 nM		> 1000 nM	50 to 500 nM	50 to 500 nM	100 to 1000 nM	C[C@@H]1CC[C@@H](c2cc(F)c(O)c(F)c2)N(C(=O)C(=O)Nc2cncc(C(N)=O)c2)C1 (racemic) [Compound 560, rac-5-[[2-[(2R,5S)-2-(3,5-difluoro-4-hydroxy-phenyl)-5-methyl-1-piperidyl]-2-oxo-acetyl]amino]pyridine-3-carboxamide]		A (an IC50 ratio greater than or equal to 10 fold)	> 10000 nM

More lines, now with the values behind:

SMILES	IC50 (PRMT5 [1])	IC50 [3, 8]	IC50 [4]	IC50 (PRMT5 [5])	IC50 (PRMT5 [6])	IC50 [3, 10]	IC50 [2, 7]	MTAP intact/deleted ratio [3]	IC50 [2, 9]
Cc1cc(NC(=O)C(=O)N2C[C@H](C)CC[C@H]2c2ccc(-c3cn[nH]c3)cc2)cnc1N (racemic) [Compound 525, rac N-(6-amino-5-methyl-3-pyridyl)-2-[(2S,5R)-5-methyl-2-[4-(1H-pyrazol-4-yl)phenyl]-1-piperidyl]-2-oxo-acetamide]	> 500 nM	< 100 nM	100 to 1000 nM	50 to 500 nM	50 to 500 nM		< 1000 nM	A (an IC50 ratio greater than or equal to 10 fold)	
Cc1cc(NC(=O)C(=O)N2C[C@H](C)CC[C@H]2c2ccc(-c3ccn[nH]3)cc2)cnc1N (racemic) [Compound 526, rac N-(6-amino-5-methyl-3-pyridyl)-2-[(2S,5R)-5-methyl-2-[4-(1H-pyrazol-5-yl)phenyl]-1-piperidyl]-2-oxo-acetamide]	50 to 500 nM	< 100 nM	100 to 1000 nM	50 to 500 nM	50 to 500 nM		< 1000 nM	A (an IC50 ratio greater than or equal to 10 fold)	
C[C@@H]1CCC[C@@H]2CN(C(=O)C(=O)Nc3cncc(C(N)=O)c3)CC[C@@H]21 (racemic) [Compound 536, 5-(2-(5-methyloctahydroisoquinolin-2(1H)-yl)-2-oxoacetamido)nicotinamide]	50 to 500 nM		> 1000 nM	> 500 nM	50 to 500 nM	100 to 1000 nM		A (an IC50 ratio greater than or equal to 10 fold)	> 10000 nM
C[C@@H]1CN(C(=O)C(=O)Nc2cncc(C(N)=O)c2)C[C@@H]2CCCC[C@@H]21 (racemic) [Compound 541, 5-[[2-[(4S,4aR,8aR)-4-Methyl-3,4,4a,5,6,7,8,8a-octahydro-1H-isoquinolin-2-yl]-2-oxo-acetyl]amino]pyridine-3-carboxamide]	50 to 500 nM		> 1000 nM	> 500 nM	50 to 500 nM	100 to 1000 nM		A (an IC50 ratio greater than or equal to 10 fold)	1000 to 10000 nM
C[C@@H]1CN(C(=O)C(=O)Nc2cncc(C(N)=O)c2)C[C@H]2CCCC[C@H]21 (racemic) [Compound 542, 5-[[2-[(4S,4aS,8aS)-4-Methyl-3,4,4a,5,6,7,8,8a-octahydro-1H-isoquinolin-2-yl]-2-oxo-acetyl]amino]pyridine-3-carboxamide]	50 to 500 nM		> 1000 nM	> 500 nM	50 to 500 nM	> 1000 nM		B (an IC50 ratio greater than or equal to 3 fold but lower than 10 fold)	> 10000 nM
C[C@@H]1CN(C(=O)C(=O)Nc2cncc(C(N)=O)c2)C[C@H]2CCCC[C@@H]21 (racemic) [Compound 543, 5-[[2-[(4S,4aR,8aS)-4-Methyl-3,4,4a,5,6,7,8,8a-octahydro-1H-isoquinolin-2-yl]-2-oxo-acetyl]amino]pyridine-3-carboxamide]	50 to 500 nM		> 1000 nM	50 to 500 nM	50 to 500 nM	100 to 1000 nM		A (an IC50 ratio greater than or equal to 10 fold)	1000 to 10000 nM
Cc1cc(NC(=O)C(=O)N2C[C@H](C)CC[C@H]2c2ccc(F)c(O)c2)cnc1N (racemic) [Compound 555, N-(6-amino-5-methyl-3-pyridyl)-2-[(2R,5S)-2-(4-fluoro-3-hydroxy-phenyl)-5-methyl-1-piperidyl]-2-oxo-acetamide]	50 to 500 nM		100 to 1000 nM	50 to 500 nM	< 50 nM	< 100 nM		A (an IC50 ratio greater than or equal to 10 fold)	< 1000 nM
Cc1cc(NC(=O)C(=O)N2C[C@H](C)CC[C@H]2c2ccc(-c3ccn[nH]3)s2)cnc1N (racemic) [Compound 556, N-(6-amino-5-methyl-3-pyridyl)-2-[(2R,5S)-5-methyl-2-[5-(1H-pyrazol-5-yl)-2-thienyl]-1-piperidyl]-2-oxo-acetamide]	50 to 500 nM		100 to 1000 nM	50 to 500 nM	50 to 500 nM	< 100 nM		A (an IC50 ratio greater than or equal to 10 fold)	< 1000 nM
Cc1cncc(NC(=O)C(=O)N2C[C@H](C)CC[C@H]2c2ccc(O)cc2)c1 (racemic) [Compound 557, rac-2-((2R,5S)-2-(4-hydroxyphenyl)-5-methylpiperidin-1-yl)-N-(5-methylpyridin-3-yl)-2-oxoacetamide]	50 to 500 nM		> 1000 nM	50 to 500 nM	50 to 500 nM	100 to 1000 nM		A (an IC50 ratio greater than or equal to 10 fold)	> 10000 nM
COc1ccccc1[C@@H]1CC[C@@H](C)CN1C(=O)C(=O)Nc1cncc(C(N)=O)c1 (racemic) [Compound 558, 5-[[2-[(2S,5R)-2-(2-Methoxyphenyl)-5-methyl-1-piperidyl]-2-oxo-acetyl]amino]pyridine-3-carboxamide]	50 to 500 nM		> 1000 nM	> 500 nM	50 to 500 nM	100 to 1000 nM		A (an IC50 ratio greater than or equal to 10 fold)	> 10000 nM
